Measurements reported in the supplement of paper PMC10627819.

How the values were obtained:
Test in all cases: fitness (endpoint OD595 vs no drug) (fraction); higher = more growth
[1] = test system: S. aureus Newman
In short: (§1)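 At 37 °C, bacteria in TSB, LB Lennox or CY were grown in 384-well plates from a starting OD595 of 0.01. OD595 was measured every 30 min for 14 h, with the first reading used as background. Fitness is the optical density at the switch to stationary phase as a fraction of the robust mean of no-drug control wells, capped at 1.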

[2] = test system: S. pneumoniae D39V; conditions: main component drawn
In short: as §1

[3] = test system: B. subtilis 168; conditions: main component drawn
In short: as §1
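Note: OD595 on entry to stationary phase over no-drug wells; at most 1.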

CO/N=C(\C(=O)N[C@@H]1C(=O)N2C(C(=O)O)=C(COC(C)=O)CS[C@H]12)c1csc(N)n1 [Cefotaxime] + CC1(C)S[C@@H]2[C@H](NC(=O)Cc3ccccc3)C(=O)N2[C@H]1C(=O)O [Penicillin G]
fitness, [1]
Conditions	first compound 0.078 µg/mL	first compound 0.156 µg/mL	first compound 0.312 µg/mL
partner 0.0195 µg/mL	0.677	0.506	0.297
partner 0.039 µg/mL	0.644	0.49	0.288
partner 0.078 µg/mL	0.693	0.541	0.301

fitness, [1], one replicate
Conditions	first compound 0.625 µg/mL	first compound 1.25 µg/mL	first compound 2.5 µg/mL
partner 0.0195 µg/mL	0.0231	0.0448	0.071
partner 0.039 µg/mL	0.0366	0.0335	0.0438
partner 0.078 µg/mL	0.0525	0.0319	0.0774

CO/N=C(\C(=O)N[C@@H]1C(=O)N2C(C(=O)O)=C(COC(N)=O)CS[C@H]12)c1ccco1 [Cefuroxime] + CC1(C)S[C@@H]2[C@H](NC(=O)Cc3ccccc3)C(=O)N2[C@H]1C(=O)O [Penicillin G]
fitness, [1], one replicate
Conditions	first compound 0.04875 µg/mL	first compound 0.0975 µg/mL	first compound 0.195 µg/mL
partner 0.0195 µg/mL	0.873	0.849	0.889
partner 0.039 µg/mL	0.959	0.831	0.907
partner 0.078 µg/mL	0.898	0.888	0.906

CO/N=C(\C(=O)N[C@@H]1C(=O)N2C(C(=O)O)=C(COC(N)=O)CS[C@H]12)c1ccco1 [Cefuroxime] + CO/N=C(\C(=O)N[C@@H]1C(=O)N2C(C(=O)[O-])=C(C[N+]3(C)CCCC3)CS[C@H]12)c1csc(N)n1 [Cefepime]
fitness, [1], one replicate
Conditions	first compound 0.04875 µg/mL	first compound 0.0975 µg/mL	first compound 0.195 µg/mL
partner 0.125 µg/mL	0.984	0.841	0.925
partner 0.25 µg/mL	0.871	0.821	0.922
partner 0.5 µg/mL	0.88	0.731	0.864

CO/N=C(\C(=O)N[C@@H]1C(=O)N2C(C(=O)O)=C(COC(N)=O)CS[C@H]12)c1ccco1 [Cefuroxime] + CO[C@@]12[C@H](COC(N)=O)C3=C(C(=O)C(C)=C(N)C3=O)N1C[C@@H]1N[C@@H]12 [Mitomycin C]
fitness, [1], one replicate
Conditions	first compound 0.04875 µg/mL	first compound 0.0975 µg/mL	first compound 0.195 µg/mL
partner 0.0156 µg/mL	0.6	0.597	0.653
partner 0.0312 µg/mL	0.35	0.338	0.332
partner 0.0625 µg/mL	0.537	0.488	0.413

CN(C)[C@@H]1C(O)=C(C(N)=O)C(=O)[C@@]2(O)C(O)=C3C(=O)c4c(O)ccc(Cl)c4[C@@](C)(O)[C@H]3C[C@@H]12 [Chlortetracycline] + CC(C1CCC(C(O1)OC2C(CC(C(C2O)OC3C(C(C(CO3)(C)O)NC)O)N)N)N)NC [Gentamicin]
Conditions	fitness
[2], first compound 0.012 µg/mL, partner 2 µg/mL	0.8
[2], first compound 0.012 µg/mL, partner 4 µg/mL	0.752
[2], first compound 0.012 µg/mL, partner 8 µg/mL	0.706
[2], first compound 0.024 µg/mL, partner 2 µg/mL	0.393
[2], first compound 0.024 µg/mL, partner 4 µg/mL	0.392
[2], first compound 0.024 µg/mL, partner 8 µg/mL	0.389
[2], first compound 0.048 µg/mL, partner 2 µg/mL	0.255
[2], first compound 0.048 µg/mL, partner 4 µg/mL	0.184
[2], first compound 0.048 µg/mL, partner 8 µg/mL	0.187
[2], first compound 0.375 µg/mL, partner 2 µg/mL	0.0667
[2], first compound 0.375 µg/mL, partner 4 µg/mL	0.0598
[2], first compound 0.375 µg/mL, partner 8 µg/mL	0.0694
[2], first compound 0.75 µg/mL, partner 2 µg/mL	0.0603
[2], first compound 0.75 µg/mL, partner 4 µg/mL	0.0825
[2], first compound 0.75 µg/mL, partner 8 µg/mL	0.0967
[2], first compound 1.5 µg/mL, partner 2 µg/mL	0.0704
[2], first compound 1.5 µg/mL, partner 4 µg/mL	0.0878
[2], first compound 1.5 µg/mL, partner 8 µg/mL	0.0614
[3], first compound 0.0475 µg/mL, partner 0.0625 µg/mL	0.917
[3], first compound 0.095 µg/mL, partner 0.0625 µg/mL	0.778
[3], first compound 0.19 µg/mL, partner 0.25 µg/mL	0.0795
